Measured values from ChEMBL document CHEMBL3102856, “The marine cyanobacterial metabolite gallinamide A is a potent and selective inhibitor of human cathepsin L” (J Nat Prod, 2014).
Active and inactive are the calls of the source. No cut-off for these calls is given here.

What was measured:
[1] = biological target: T1, Cathepsin L2 (Homo sapiens, UniProt O60911); experiment: Inhibition of human Cathepsin V using Z-Phe-Arg-aminomethylcoumarin as substrate preincubated for 30 mins followed by substrate addition
T1 sequence (O60911 whole entry): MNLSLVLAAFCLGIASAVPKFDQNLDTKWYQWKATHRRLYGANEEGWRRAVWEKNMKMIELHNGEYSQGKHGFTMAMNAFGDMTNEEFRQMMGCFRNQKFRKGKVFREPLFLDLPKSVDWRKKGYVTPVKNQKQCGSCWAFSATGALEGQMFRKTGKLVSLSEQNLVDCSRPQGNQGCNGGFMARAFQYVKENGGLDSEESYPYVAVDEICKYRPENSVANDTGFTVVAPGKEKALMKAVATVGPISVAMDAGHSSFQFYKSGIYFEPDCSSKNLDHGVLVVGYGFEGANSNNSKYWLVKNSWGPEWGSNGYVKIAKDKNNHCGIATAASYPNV

[2] = biological target: T1, Cathepsin L2; experiment: Inhibition of human Cathepsin V using Z-Phe-Arg-aminomethylcoumarin as substrate
[3] = species on record: Homo sapiens; experiment: Selectivity index, ratio of IC50 for human Cathepsin B to IC50 for recombinant human Cathepsin L after 30 mins using Z-Phe-Arg-aminomethylcoumarin as substrate preincubated for 30 mins followed by substrate addition
[4] = biological target: T2, Procathepsin L (Homo sapiens, UniProt P07711); experiment: Irreversible inhibition of recombinant human Cathepsin L using Z-Phe-Arg-aminomethylcoumarin as substrate assessed as residual activity at 10 fold IC50 preincubated for 30 mins followed by 100 fold dilution measured for 2 hrs by fluorescence assay
Target sequence in this assay (P07711 114-333 limits assumed): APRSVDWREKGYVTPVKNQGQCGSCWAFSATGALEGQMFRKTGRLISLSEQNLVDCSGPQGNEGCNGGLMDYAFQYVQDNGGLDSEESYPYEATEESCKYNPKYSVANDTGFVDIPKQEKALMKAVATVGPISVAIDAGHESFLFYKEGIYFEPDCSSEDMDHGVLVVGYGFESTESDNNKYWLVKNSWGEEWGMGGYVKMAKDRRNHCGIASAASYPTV

[5] = biological target: T3, Pro-cathepsin H (Homo sapiens, UniProt P09668); experiment: Inhibition of human Cathepsin H using Arg-aminomethylcoumarin as substrate
T3 sequence (P09668 whole entry): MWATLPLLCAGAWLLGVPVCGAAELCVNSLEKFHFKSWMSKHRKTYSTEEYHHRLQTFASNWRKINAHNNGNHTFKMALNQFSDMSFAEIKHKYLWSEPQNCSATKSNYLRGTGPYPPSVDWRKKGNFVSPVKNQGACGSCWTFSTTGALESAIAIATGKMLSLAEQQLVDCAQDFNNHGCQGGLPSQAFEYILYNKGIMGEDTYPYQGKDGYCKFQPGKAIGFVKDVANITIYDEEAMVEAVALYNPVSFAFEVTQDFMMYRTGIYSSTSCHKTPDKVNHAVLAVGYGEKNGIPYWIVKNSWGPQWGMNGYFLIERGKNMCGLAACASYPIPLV

[6] = biological target: T2, Procathepsin L; experiment: Inhibition of recombinant human Cathepsin L assessed as inhibition of activity-based probe DCG-04 labelling preincubated for 30 mins followed by DCG-04 addition measured after 30 mins
Target sequence in this assay (P07711 114-333 limits assumed): as the sequence (P07711 114-333 limits assumed) above

[7] = species on record: Homo sapiens; experiment: Selectivity index, ratio of IC50 for human Cathepsin V to IC50 for recombinant human Cathepsin L using Z-Phe-Arg-aminomethylcoumarin as substrate preincubated for 30 mins followed by substrate addition
[8] = biological target: T3, Pro-cathepsin H; experiment: Inhibition of human Cathepsin H using Arg-aminomethylcoumarin as substrate preincubated for 30 mins followed by substrate addition
[9] = biological target: T2, Procathepsin L; experiment: Inhibition of recombinant human Cathepsin L using Z-Phe-Arg-aminomethylcoumarin as substrate preincubated for 30 mins followed by substrate addition
Target sequence in this assay (P07711 whole entry): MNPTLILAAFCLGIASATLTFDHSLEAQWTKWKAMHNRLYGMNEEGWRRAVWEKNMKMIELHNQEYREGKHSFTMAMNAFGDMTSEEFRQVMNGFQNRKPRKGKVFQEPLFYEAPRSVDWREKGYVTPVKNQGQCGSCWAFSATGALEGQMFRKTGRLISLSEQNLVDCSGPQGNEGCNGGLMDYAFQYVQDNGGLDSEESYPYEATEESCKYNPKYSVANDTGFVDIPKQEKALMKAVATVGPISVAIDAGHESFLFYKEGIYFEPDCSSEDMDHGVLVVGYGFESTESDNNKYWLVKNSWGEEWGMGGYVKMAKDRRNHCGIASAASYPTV

[10] = biological target: T4, Cathepsin B (Homo sapiens, UniProt P07858); experiment: Inhibition of human Cathepsin B using Z-Phe-Arg-aminomethylcoumarin as substrate
[11] = species on record: Homo sapiens; experiment: Selectivity index, ratio of IC50 for human Cathepsin V to IC50 for recombinant human Cathepsin L using Z-Phe-Arg-aminomethylcoumarin as substrate
[12] = biological target: T4, Cathepsin B; experiment: Inhibition of human Cathepsin B using Z-Phe-Arg-aminomethylcoumarin as substrate preincubated for 30 mins followed by substrate addition
[13] = species on record: Homo sapiens; experiment: Selectivity index, ratio of IC50 for human Cathepsin B to IC50 for recombinant human Cathepsin L using Z-Phe-Arg-aminomethylcoumarin as substrate
[14] = biological target: T2, Procathepsin L; experiment: Inhibition of recombinant human Cathepsin L using Z-Phe-Arg-aminomethylcoumarin as substrate
[15] = biological target: T2, Procathepsin L; experiment: Irreversible inhibition of recombinant human cathepsin L using Z-Phe-Arg-aminomethylcoumarin as substrate
Target sequence in this assay (P07711 whole entry): as above

SMILES: CC[C@H](C)[C@@H](C(=O)O[C@@H](CC(C)C)C(=O)N[C@@H](CC(C)C)C(=O)N[C@@H](C)/C=C/C(=O)N1C(=O)C=C(OC)[C@@H]1C)N(C)C [GALLINAMIDE A]
- IC50 [1]: 140 nM
- IC50 [2]: 460 nM
- Ratio IC50 [3]: 320
- inhibition [4]: Active
- IC50 [5]: > 30000 nM
- inhibition [6]: Dose-dependent effect
- Ratio IC50 [7]: 28
- IC50 [8]: > 30000 nM
- IC50 [9]: 5 nM
- IC50 [10]: 4200 nM
- Ratio IC50 [11]: 10
- IC50 [12]: 1700 nM
- Ratio IC50 [13]: 91
- IC50 [14]: 47 nM
- inhibition ([14]; TDE = time-dependent effect): tde
- Ki [15]: 9000 M⁻¹ s⁻¹
